Drawing on patent US6525055B1, “Tricyclic phthalazine derivatives as phosphodiesterase 4 inhibitors” (Zambon Group S.p.A., priority 1998, dated 2003), this text covers IC50 for 1 molecule.

The target in this assay is PDE 4 enzyme. As to the kind of experiment: PDE 4 enzyme inhibition (SPA). It counts as biochemical. The note with it: PDE 4 purified from human PMNs, cAMP 1 μM, 40 minutes at 30° C. The text has this:
Evaluation of the PDE 4 Enzyme Inhibition a) Purification of Human Polymorphonucleate Leukocytes
The polymorphonucleate leukocytes (PMNs) were isolated from peripheral blood of healthy volunteers according to what described by Boyum A., Scand. J. Immunol., 1976, 5th suppl., 9). Shortly, the isolation of the PMNs was effected by Ficoll-Paque gradient centrifugation followed by sedimentation on dextrane and the erythrocyte contamination was eliminated by hypotonic lysis. […]
b) PDE 4 Enzyme Purification
The human PMNs were re-suspended in TRIS/HCl buffer (10 mM pH 7.8) containing MgCl2 (5 mM), EGTA (4 mM), mercaptoethanol (5 mM), TRlTON-X100 (1%), pepstatin A (1 μM), PMSF (100 μM) and leupeptin (1 μM), and homogenised by Polytron. […]
The enzyme activity was evaluated with an Amersham kit based on the SPA (Scintillation Proximity Assay) technique. […] The radioactivity due to the particles was measured in a […]. The results are expressed as percent activity versus the control present in each experiment. The IC50 values were calculated over 9 equidistant concentrations in logarithmic scale using a 4-parameters logistic function by software.

As to `COc1ccc2c(Cc3c(Cl)cncc3Cl)nn3c(C)nnc3c2c1` [Compound 2, 6-(3,5-Dichloro-pyridin-4-ylmethyl)-9-methoxy-3-methyl-[1,2,4]-triazole-[3,4-a]-phthalazine], 207 nM corresponded to half-maximal inhibition (IC50).

As usually defined, the IC50 is the concentration that inhibits the measured activity by half. Low readings indicate greater potency in that assay, high ones weaker potency in that assay.
